How the values were obtained:
[1] = test system: ventral cerebrum markers NKX2.1 and MASH1 in cerebral organoid; experiment: Immunohistostaining of cerebral organoids with anti-NKX2.1 and anti-MASH1 antibody; assay type: cell-based, human
Procedure: (§1) The cell line iPSC 409B2 (Cell no. HPS0076) was obtained from National University Corporation Kyoto University through RIKEN BioResource Center Cell Bank. In order to maintain the undifferentiated state, the iPS cells were cultured in an Essential 8 medium on a dish coated with vitronectin (VNT-N, Thermofisher Scientific).
(§2) A cerebral organoid was prepared according to the method described in Lancaster et al., Nat Protoc. 9: 2329-2340, 2014. Using TrypLE™ (Thermofisher Scientific), hiPSCs cultured in an E8 medium were separated into single cells, which were then reaggregated to a cell mass having a density of approximately 10,000 cells, using a […] E6 medium, in a low-adhesion 96-well round bottom plate.
(§3) To the E6 medium, FGF2 (5 ng/mL, 0 to 4 days after initiation of the culture) and a ROCK inhibitor (Thiazovivine, 1μM, 0 to 4 days after initiation of the culture) were added. The medium was exchanged with a fresh one at 2 and 4 days after initiation of the culture. At 6 days after initiation of the culture, the medium was exchanged with a neural differentiation medium (DMEM/F12, 1% N2 supplement, insulin, 1% GlutaMax supplement, 1% NEAA, 1% penicillin-streptomycin, and 1 μg/mL heparin) containing SAG, caged SAG (photoresponsive protective group-binding SAG), or caged SAG before or after UV irradiation. When caged SAG was added, the culture was irradiated with a light for 15 minutes, using a halogen lamp. At 6, 8, and 10 days after initiation of the culture, the medium was exchanged with a fresh one.
Three types of organoids cultured under individual conditions were recovered at 11 days after initiation of the culture, and were then subjected to qPCR. […]
Thereafter, the organoid was cut into a frozen section with a size of […] and was recovered on a slide glass. […] A fluorescent image was obtained using an inverted fluorescence microscope equipped with a CMOS camera (Zyla4.2, Andor).

[2] = test system: hedgehog signal downstream gene Gli in NIH-3T3 cells; experiment: Hedgehog signal assay in NIH-3T3 cells (Gli expression, quantitative PCR); assay type: cell-based
Procedure: (§4) NIH-3T3 cells were allowed to grow in DMEM (supplemented with 10% FBS, glutamine, penicillin, and streptomycin). In order to perform a hedgehog signal assay, the cells that had been cultured to reach confluent were cultured in a starvation-induced medium (DMEM; serum not added) overnight, so that the cells were in a starved state. Subsequently, the medium was exchanged with a starvation-induced medium supplemented with SAG, caged SAG, SANT75, caged SANT75, or the like. Using a halogen lamp, the cells were irradiated with a light for 15 minutes. Thereafter, total RNA was extracted from the NIH-3T3 cells cultured for 6 hours, and was then subjected to real-time PCR.
(§5) Total RNA was extracted using TriPure Isolation Reagent kit (Roche Diagnosis). cDNA was synthesized using SuperScript (registered trademark) IV Reverse Transcriptase (Invitrogen). Quantitative PCR was carried out using KAPA SYBR Fast qPCR kit (KAPA Biosystems). The data were standardized with respect to the expression level of GAPDH.

Smoothened = Smoothened (Mus musculus, UniProt P56726); conditions: previously reported, Chen et al., Proc. Natl. Acad Sci, 99: 14071-14076, 2002; cited from earlier work
[3] = test system: hedgehog signals (Glil expression); experiment: Inhibition of SAG-induced hedgehog signals (Glil expression) by antagonist; assay type: cell-based; conditions: SAG 100 nM and SANT75 1 μM simultaneously
Procedure: as §4, §5

[4] = Photolysis kinetic analysis of caged SAG using HPLC (365 nm light); assay type: physicochemical; conditions: 100 μM caged SAG in PBS:DMSO=9:1, light at 365 nm, 0 to 8 J/cm^2, HPLC
Procedure: 100 μM Caged SAG (PBS:DMSO=9:1) was irradiated with a light at a wavelength of 365 nm at an energy intensity of 0 to 8 J/cm^2. Each sample was analyzed according to HPLC (5-C18-AR-II column, at 0 min, CH3CN:H2O=5:95, at 8 min, 30:70, and then at 15 min, 0:100). Each fraction obtained by HPLC was recovered, and was then analyzed according to ESI spectrometry.

[5] = test system: ventral cerebrum markers NKX2.1 and MASH1 in cerebral organoid; experiment: Expression of ventral cerebrum markers in cerebral organoids, quantitative PCR; assay type: cell-based, human
Procedure: as §1, §2, §3
Three types of organoids cultured under individual conditions were recovered at 11 days after initiation of the culture, and were then subjected to qPCR. Each organoid was embedded in a Matrigel droplet (25 μl), and was then transferred on a 60-mm dish containing a brain differentiation medium (DMEM/F12 : Neurobasal™ media=1:1, which was supplemented with a 0.5% N2 supplement, a 1% GlutaMax supplement, 0.5% NEAA, 1% penicillin-streptomycin, insulin, and a 1% B27 supplement (not containing vitamin A)). At 15 days after initiation of the culture, the medium was exchanged with a brain differentiation medium supplemented with a vitamin A-containing B27 supplement, and was then transferred into an Orbital Shaker. Thereafter, the medium was exchanged with a fresh one, every 4 or 5 days, until 30 days after initiation of the culture.
as §5

Sequence of Smoothened (P56726 33-793): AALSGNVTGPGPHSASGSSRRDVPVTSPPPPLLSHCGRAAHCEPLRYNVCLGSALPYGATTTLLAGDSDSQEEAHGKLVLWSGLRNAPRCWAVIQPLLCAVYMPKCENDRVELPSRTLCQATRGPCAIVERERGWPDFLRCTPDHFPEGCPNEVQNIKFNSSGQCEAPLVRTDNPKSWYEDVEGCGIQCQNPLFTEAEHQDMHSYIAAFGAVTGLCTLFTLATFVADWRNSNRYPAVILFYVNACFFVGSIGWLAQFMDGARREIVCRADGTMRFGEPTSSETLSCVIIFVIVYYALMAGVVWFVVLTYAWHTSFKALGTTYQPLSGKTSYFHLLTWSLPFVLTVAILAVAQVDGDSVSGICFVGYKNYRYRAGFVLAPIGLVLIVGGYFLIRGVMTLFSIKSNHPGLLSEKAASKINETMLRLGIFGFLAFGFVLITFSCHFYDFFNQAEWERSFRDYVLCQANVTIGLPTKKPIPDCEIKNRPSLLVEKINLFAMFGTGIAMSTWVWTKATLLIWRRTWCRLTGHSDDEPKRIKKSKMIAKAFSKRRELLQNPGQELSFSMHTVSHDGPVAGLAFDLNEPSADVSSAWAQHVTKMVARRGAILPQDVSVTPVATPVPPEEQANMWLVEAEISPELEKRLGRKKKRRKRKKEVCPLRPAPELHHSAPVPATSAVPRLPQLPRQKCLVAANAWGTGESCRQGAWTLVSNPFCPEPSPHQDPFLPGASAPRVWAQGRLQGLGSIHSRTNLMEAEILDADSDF

Compound: CNC1CCC(N(Cc2cccc(-c3ccncc3)c2)C(=O)c2sc3ccccc3c2Cl)CC1 (centres unmarked) [SAG, reference compound]
- expression levels of NKX2.1 and MASH1 ([1]; cultured in the presence of SAG (SAG(+))): increased
- activation (expression level of Gli) ([2]; SAG at 1 nM): only a little activation
- activation (expression level of Gli) ([2]; SAG at 10 nM): activation was observed
- expression level of Gli ([2]; cells cultured in the presence of SAG): increased
- EC50 (Smoothened): 3 nM

Compound: CCCNC1CCC(N(Cc2cccc(-c3ccncc3)c2)C(=O)c2sc3ccccc3c2Cl)CC1 (centres unmarked) [SANT75]
- inhibition of hedgehog signals (expression level of Glil) [3]: competitive inhibition

Compound: COc1cc(C(C)OC(=O)N(C)C2CCC(N(Cc3cccc(-c4ccncc4)c3)C(=O)c3sc4ccccc4c3Cl)CC2)c([N+](=O)[O-])cc1OCCCC(=O)O (centres unmarked) [caged SAG]
- energy intensity at which photolysis was almost completed [4]: 2-4 J/cn^2
- Smo agonistic activity ([5]; as a result of light irradiation): the same level of Smo agonistic activity as that of SAG
- expression levels of NKX2.1 and MASH1 ([5]; caged SAG after completion of light irradiation, 100 nM, quantitative PCR): increased
- expression of the ventral cerebrum markers (NKX2.1 and MASH1) ([5]; caged SAG before light irradiation, 100 nM, quantitative PCR): not induced
- activity of caged SAG ([5]; photodissociable protective group bound, without light irradiation): suppressed
- expression levels of NKX2.1 and MASH1 ([1]; caged SAG after completion of light irradiation (100 nM)): increased
- expression levels of NKX2.1 and MASH1 ([1]; cerebral organoid cultured in the presence of caged SAG irradiated with a light): increased
- expression level of Gli ([2]; 100 nM caged SAG, cells irradiated with a light): increased
- expression of Gli ([2]; 100 nM caged SAG, cells not irradiated with a light): could not be confirmed
- activation (expression level of Gli) ([2]; caged SAG at 1 nM, with light irradiation): only a little activation
- activation (expression level of Gli) ([2]; caged SAG at 10 nM, with light irradiation): activation was observed
